Patent US20100158850A1, “DENDRIMER BASED MODULAR PLATFORMS” (The Regents of the University of Michigan, priority 2008, published 2010)

Tests used:
[1] = target: T1, folic acid receptor (Homo sapiens, UniProt P15328); experiment: Blocking of folate receptors: uptake of targeted platform 15 in KB cells with 20-fold excess blocking agent; assay type: cell-based; conditions: for Blocking of uptake of targeted platform 15 (FIG. 5d, 5e): 20 fold excess of blocking agent (for 13 with respect to folic acid content)
T1 construct: performed using FA-receptor-expressing KB cells (ATCC #CCL-17); host or cells: KB cells
T1 sequence (P15328 25-234): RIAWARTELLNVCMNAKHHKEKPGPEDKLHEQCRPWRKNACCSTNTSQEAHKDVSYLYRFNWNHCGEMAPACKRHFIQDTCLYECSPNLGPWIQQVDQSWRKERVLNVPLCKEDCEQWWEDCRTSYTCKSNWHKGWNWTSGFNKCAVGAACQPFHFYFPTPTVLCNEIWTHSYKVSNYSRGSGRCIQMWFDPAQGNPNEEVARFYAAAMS
Method: (§1) The uptake of the synthesized conjugates was performed using FA-receptor-expressing KB cells (ATCC #CCL-17) as previously described (see, e.g., Thomas et al, J. Med. Chem., 48, 3729-3735, 2005; herein incorporated by reference in its entirety). Cells were maintained in FA-free Roswell Park Memorial Institute-1640 (RPMI 1640) medium supplemented with 10% Fetal Bovine serum (FBS), […] L-glutamine, 100 U/ml penicillin and 100 μg/ml streptomycin in 5% CO2 at 37° C. Cells were planted into 24 wells plate at density 250,000 per well and allowed to reach ˜90% confluent on the day of the experiment. They were rinsed and incubated in serum free medium with conjugates for 1 hour at 37° C. in 5% CO2. In some wells, a 20-fold excess of free folic acid or the folic acid conjugated dendrimer was added 30 minutes prior to the addition of the dendrimer platform for the blocking of folate receptors.
(§2) The cellular fluorescence was quantified on a Beckman-Coulter EPICS-XL MCL flow cytometer, and the data were analyzed using Expo32 software (Beckman-Coulter, Miami, Fla.). Cells were trypsinized, rinsed and suspended in PBS containing 0.1% bovine serum albumin (PBSB). The viable cells were gated, and the mean FL1-fluorescence of 10,000 cells was quantified. Error bars are calculated using the half-peak coefficient of variation (HPCV) (see, e.g., Marie, D.; et al., Biol. Cell 1993, 78, 41-51; herein incorporated by reference in its entirety).
The final set of controls investigated active blocking of the folic acid receptor by either free folic acid (FIGS. 5d and 5f-green) or a folic acid-dendrimer conjugate without a fluorescent dye (13) (FIGS. 5e and 5f-orange) to prevent the specific up-take of the folic acid targeted dendrimer systema A 20 fold excess of blocking agent was employed relative to the targeted platform. For the blocking experiment using the single dendrimer-folic acid conjugate (13), molar equivalence was based on the folic acid content of the sample rather than the dendrimer content. Both blocking agents were evaluated at 30 nM, 100 nM, 300 nM, and 1000 nM. […] While the dendrimer-folic acid conjugate is not as effective at blocking as the free folic acid, approximately 75% blocking is achieved.

[2] = tested on: FA-receptor-expressing KB cells; experiment: Cellular uptake of dendrimer conjugates in KB cells measured by flow cytometry; assay type: cell-based, human
Method: as §1, §2
Cellular uptake of the folic acid targeted dendrimer system (15) at four different concentrations (30 nM, 100 nM, 300 nM, and 1000 nM of 15) was measured in KB cells that express a high cellular membrane concentration of folic acid receptor (FAR). Fluorescence uptake was quantified by Flow Cytometry.
A series of control experiments were performed in order to ensure that uptake of the folic acid targeted dendrimer system (15) was occurring via receptor-mediated endocytosis and not non-specific membrane interactions. […] The second control sample contained a non-conjugated (un-clicked) mixture of the two dendrimers functionalized with either FITC or folic acid (13 and 14). Uptake of this mixture was quantified at 30 nM, 100 nM, and 300 nM (FIGS. 5c and 5f-teal). […] This control eliminates the possibility that the dendrimer modules could form a non-covalently linked complex that would be internalized. A third control sample (18) was composed of an un-targeted dendrimer module (17) coupled to the FITC conjugated imaging module (14). The un-targeted dual module platform (18) was assembled under the same conditions used to form the folic acid targeted platform (15). […] This un-targeted dendrimer platform control matches the molecular weight and size of the folic acid targeted dendrimer system (15).

## Nc1nc2ncc(CNc3ccc(C(=O)N[C@@H](CCC(=O)O)C(=O)O)cc3)nc2c(=O)[nH]1 [free folic acid, folic acid, reference compound]
[1]
  Blocking of uptake of targeted platform 15 (FIG. 5d, 5e): successfully blocked
[1]; 20 fold excess, added 30 minutes before, concentrations up to 100 nM
  Blocking of uptake of targeted platform 15: Complete blocking

## FA3.5-G5-Ac107-L-G5-Ac106-FITC3.2 [Compound 15]
[2]; KB cells, 1 hour at 37° C., 30 nM, 100 nM, 300 nM and 1000 nM
  Cellular uptake (fluorescence, flow cytometry): dose dependent uptake
[2]; KB cells, 1 hour at 37° C., tested at 30-1000 nM
  Concentration at which uptake saturates: 100 nM
[2]; human epithelial cancer cell line (KB)
  Specific targeting of folic acid receptor in vitro: found to specifically target the over-expressed folic acid receptor

## G5-Ac106-Azide2.5-FITC3.2 [Compound 14]
[2]; KB cells, 30 nM, 100 nM and 300 nM
  Cellular uptake (FIG. 5b): not observed
[2]; KB cells, 30 nM, 100 nM, 300 nM and 1000 nM
  Cellular uptake above the background level: No uptake was observed
[2]; KB cells, 1000 nM
  Cellular uptake (FIG. 5b): Very minimal uptake

## G5-Ac107-Alkyne1.6-FA3.5 [Compound 13]
[1]; 20 fold excess based on folic acid content, evaluated at 30-1000 nM
  Blocking of uptake of targeted platform 15: approximately 75%
[1]
  Blocking of uptake of targeted platform 15 (FIG. 5d, 5e): successfully blocked

## G5-Ac110.7-L-G5-Ac106-FITC3.2 [Compound 18]
[2]; KB cells, concentrations up to 300 nM
  Mean fluorescence uptake beyond the background level: no uptake was observed beyond the background level
